We go through four compounds from patent US4593090A, “Novel nitrosourea compounds, method for preparing same, and pharmaceutical composition containing same” (Gogo Kimura, priority 1981, dated 1986).

Like-named read-outs stand apart in the source and are kept apart here.

Series [1] relates to Leukemia L1210. Description: Activity against Leukemia L1210, intraperitoneal, increase in life span of mice. Format: in vivo, female mice (BDF1 family). To be noted: for ED (maximum ILS) / ED30: Mus musculus, L1210, ip, ip once a day for 5 successive days; for ED (maximum ILS): daily dosage giving maximum increase of life span, read-out: O.D. (optimum dosage); for ED30: daily dosage increasing average survival days by 30%, read-out: ILS30; for Survivors after 60 days / Max. ILS % / Therapeutic ratio TR: ip; for Survivors after 60 days: 6-membered group; for Max. ILS %: 60-day observation, versus control; for Therapeutic ratio TR: O.D./ILS30. In short, it runs like this:
(§1)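 Female BDF1 mice (20 to 23 g; 6 per group) were implanted intraperitoneally with 1×10^5 L1210 cells, then dosed ip or orally once daily for 5 days starting 24 h later. Survival was followed over 60 days, and ILS% was derived from mean survival days versus untreated controls.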

Series [2] concerns Leukemia L1210. Description: Activity against Leukemia L1210, oral, increase in life span of mice. Format: in vivo, female mice (BDF1 family). To be noted: for ED (maximum ILS) / ED30: Mus musculus, L1210, oral once a day for 5 successive days; for ED (maximum ILS): daily dosage giving maximum increase of life span, read-out: O.D. (optimum dosage); for ED30: daily dosage increasing average survival days by 30%, read-out: ILS30; for Survivors after 60 days / Max. ILS % / Therapeutic ratio TR: oral; for Survivors after 60 days: 6-membered group; for Max. ILS %: 60-day observation, versus control; for Therapeutic ratio TR: O.D./ILS30. In short, it runs like this: as §1

Another series relates to Ehrlich acites carcinoma. Description: Growth-inhibiting effect against Ehrlich acites carcinoma. Format: in vivo, male mice. The settings on record: Mus musculus, Ehrlich, 120 h, 5 days; for response vs control in vivo at 25 mg/kg: 25 mg/kg/day ip; for response vs control in vivo at 100 mg/kg: 100 mg/kg/day ip. The method in brief: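 Male mice (groups of 6) implanted intraperitoneally with 1×10^7 Ehrlich ascites cells; compounds in 1% Nikkol HCO-60 given i.p. once daily for 5 days starting 24 hrs post-implantation. Total packed cell volume measured at day 7; T/C% vs untreated group, scored - (100-66), + (65-41), ++ (40-11), +++ (10-0).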

Series [3] can be described thus: Acute toxicity (LD50, Behrens-Karber method). Format: in vivo, ICR mice. The settings on record: mouse, in vivo, ip, mortality during 30 days. The method, then: Test compounds, dissolved or suspended in 0.5% aqueous CMC, were each intraperitoneally administered to ICR mice in a dose of 0.1 ml per 10 g body weight. LD50 (mg/kg) value of each test compound was calculated from the mortality of mice during 30 days by the Behrens-Karber method.

As usually defined, the LD50 is the dose expected to kill half of the subjects tested. Low readings indicate greater toxicity, high ones lower toxicity. As to `CCCCO[C@H]1O[C@H](CO)[C@H](N(C(=O)N(CCCl)N=O)C(C)COC)[C@H](O)[C@H]1O` (stereo partly drawn) [Compound 132, 3-(1-methyl-2-methoxyethyl)-3-(n-butyl α-D-galactopyranose-4-yl)-1-(2-chloroethyl)-1-nitrosourea], in the series on Leukemia L1210 [1], the ED (maximum ILS) stood at 160 mg/kg, the ED30 amounted to 3.86 mg/kg, the “Survivors after 60 days” value was 4/6 and the “Max. ILS %” value is reported as over 420%. Moreover, the “Therapeutic ratio TR” value with Leukemia L1210 [1] is reported as 41.5. Further, in the series on Leukemia L1210 [2], the ED (maximum ILS) amounted to 200 mg/kg, the ED30 came to 14 mg/kg, the “Survivors after 60 days” value is reported as 3/6 and the “Max. ILS %” value is listed as over 345%. In addition, in the series with Leukemia L1210 [2], the “Therapeutic ratio TR” value is reported as 14.3. Further, in the series with Ehrlich acites carcinoma (read-out: Activity), the response vs control in vivo at 25 mg/kg is 0 to 10% and the response vs control in vivo at 100 mg/kg fell in the range of 0 to 10%. Further, in the series on Ehrlich acites carcinoma (read-out: T/C %), the response vs control in vivo at 25 mg/kg amounted to 0% and the response vs control in vivo at 100 mg/kg stood at 0%. In series [3], the 50% lethal dose (LD50) at 720 h amounted to 550 mg/kg.
Turning to `CC(C)CN(C[C@H]1O[C@H](OCC2CCCO2)[C@@H](O)[C@@H](O)[C@@H]1O)C(=O)N(CCCl)N=O` (stereo partly drawn) [Compound 136, 3-(isobuty)-3-(tetrahydrofurfuryl α-D-mannopyranose-6-yl)-1-(2-chloroethyl)-1-nitrosourea], in the series on Leukemia L1210 [1], the ED (maximum ILS) came out at 200 mg/kg, the ED30 stood at 2.94 mg/kg, the “Survivors after 60 days” value is recorded as 6/6 and the “Max. ILS %” value is given as over 700%. Besides, in the series on Leukemia L1210 [1], the “Therapeutic ratio TR” value stood at 68.0. In the series on Leukemia L1210 [2], the ED (maximum ILS) is 240 mg/kg, the ED30 turned out to be 10.1 mg/kg, the “Survivors after 60 days” value is on record as 5/6 and the “Max. ILS %” value is given as over 625%. Also, in the series on Leukemia L1210 [2], the “Therapeutic ratio TR” value is 23.8. In the series with Ehrlich acites carcinoma (read-out: Activity), the response vs control in vivo at 25 mg/kg lay within 0 to 10% and the response vs control in vivo at 100 mg/kg lay in the range of 0 to 10%. In the series on Ehrlich acites carcinoma (read-out: T/C %), the response vs control in vivo at 25 mg/kg was determined as 0% and the response vs control in vivo at 100 mg/kg is 0%. Besides, in series [3], the LD50 at 720 h turned out to be 600 mg/kg.
`CC(C)CO[C@H]1O[C@H](CN(CC2CCCO2)C(=O)N(CCCl)N=O)[C@@H](O)[C@@H](O)[C@@H]1O` (stereo partly drawn) [Compound 140, 3-tetrahydrofurfuryl-3-(isobutyl α-D-altropyranose-6-yl)-1-(2-chloroethyl)-1-nitrosourea]: in the series with Leukemia L1210 [1], the ED (maximum ILS) amounted to 180 mg/kg, the ED30 is 2.8 mg/kg, the “Survivors after 60 days” value is 6/6 and the “Max. ILS %” value was over 700%. Also, the “Therapeutic ratio TR” value in the series on Leukemia L1210 [1] worked out at 64.3. Further, in the series on Leukemia L1210 [2], the ED (maximum ILS) was 220 mg/kg, the ED30 worked out at 9.69 mg/kg, the “Survivors after 60 days” value is recorded as 5/6 and the “Max. ILS %” value is on record as over 620%. Also, the “Therapeutic ratio TR” value in the series with Leukemia L1210 [2] is recorded as 22.7. In the series with Ehrlich acites carcinoma (read-out: Activity), the response vs control in vivo at 25 mg/kg fell in the range of 0 to 10% and the response vs control in vivo at 100 mg/kg is 0 to 10%. For the same compound, in the series with Ehrlich acites carcinoma (read-out: T/C %), the response vs control in vivo at 25 mg/kg was 0% and the response vs control in vivo at 100 mg/kg is 0%. Besides, the LD50 at 720 h in series [3] stood at 540 mg/kg.
As for `CCOCCN(C(=O)N(CCCl)N=O)[C@@H]1[C@@H](O)[C@@H](OC2CCCCC2)OC[C@H]1O` [Compound 149, 3-(2-ethoxyethyl)-3-(cyclohexyl α-D-xylopyranose-3-yl)-1-(2-chloroethyl)-1-nitrosourea], in the series on Leukemia L1210 [1], the ED (maximum ILS) was determined as 170 mg/kg, the ED30 was found to be 2.9 mg/kg, the “Survivors after 60 days” value is reported as 6/6 and the “Max. ILS %” value is on record as over 700%. The “Therapeutic ratio TR” value in the series on Leukemia L1210 [1] was 58.6. In the series on Leukemia L1210 [2], the ED (maximum ILS) stood at 210 mg/kg, the ED30 was 12.8 mg/kg, the “Survivors after 60 days” value was 4/6 and the “Max. ILS %” value was over 440%. Further, in the series with Leukemia L1210 [2], the “Therapeutic ratio TR” value is 16.4. In the series with Ehrlich acites carcinoma (read-out: Activity), the response vs control in vivo at 25 mg/kg fell in the range of 0 to 10% and the response vs control in vivo at 100 mg/kg is 0 to 10%. In addition, in the series with Ehrlich acites carcinoma (read-out: T/C %), the response vs control in vivo at 25 mg/kg was determined as 0% and the response vs control in vivo at 100 mg/kg was 0%. Further, in series [3], the 50% lethal dose (LD50) at 720 h came to 540 mg/kg.
